Assay results: ChEMBL document CHEMBL1156016, “Discovery of potent and selective histone deacetylase inhibitors via focused combinatorial libraries of cyclic alpha3beta-tetrapeptides” (J Med Chem, 2009)
Activity calls are given as the source filed them. The rule behind the calls is not given here. Square brackets hold non-standard residues; d marks the D form. Peptide text beside a SMILES is read from it. * marks the point of attachment. Phe(F5) = N[C@@H](Cc1c(F)c(F)c(F)c(F)c1F)C(=O)O; β3hW = N[C@H](CC(=O)O)Cc1c[nH]c2ccccc12; 1Nal = N[C@@H](Cc1cccc2ccccc12)C(=O)O; β3hY = N[C@H](CC(=O)O)Cc1ccc(O)cc1; Asu = N[C@@H](CCCCCC(=O)O)C(=O)O; β3hL = CC(C)C[C@H](N)CC(=O)O; hLys = NCCCCC[C@H](N)C(=O)O; Carboxymethyl = O=C(O)C*; CH2CH2COOH = O=C(O)CC*; Aib = CC(C)(N)C(=O)O; X1 = CCC(=O)CC*; NHOH = ON*

Key:
Histone deacetylase [1] = type: cell-based, Homo sapiens; details: hela
Description: Inhibition of HDAC in human HeLa cell cytosolic extract after 30 mins by fluorimetric assay

Histone deacetylase 1 = Histone deacetylase 1 (Homo sapiens, UniProt Q13547)
Histone deacetylase 1, sequence (Q13547 whole entry): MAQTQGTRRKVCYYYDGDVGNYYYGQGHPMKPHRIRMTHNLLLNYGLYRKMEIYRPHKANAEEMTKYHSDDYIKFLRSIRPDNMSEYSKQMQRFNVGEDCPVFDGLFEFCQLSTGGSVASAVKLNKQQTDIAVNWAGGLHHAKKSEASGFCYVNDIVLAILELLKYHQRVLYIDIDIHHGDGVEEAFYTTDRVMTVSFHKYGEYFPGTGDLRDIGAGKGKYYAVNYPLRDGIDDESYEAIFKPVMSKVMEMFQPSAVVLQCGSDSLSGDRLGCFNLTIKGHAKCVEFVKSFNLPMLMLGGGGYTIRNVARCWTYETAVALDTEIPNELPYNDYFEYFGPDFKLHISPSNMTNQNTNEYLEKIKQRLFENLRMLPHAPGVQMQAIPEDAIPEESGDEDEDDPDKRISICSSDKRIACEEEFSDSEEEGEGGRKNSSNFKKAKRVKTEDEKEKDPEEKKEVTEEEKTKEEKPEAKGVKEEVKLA
Description: Inhibition of human recombinant HDAC1 after 30 mins by fluorimetric assay

Histone deacetylase 8 = target: T1, Histone deacetylase 8 (Homo sapiens, UniProt Q9BY41)
T1 sequence (Q9BY41 whole entry): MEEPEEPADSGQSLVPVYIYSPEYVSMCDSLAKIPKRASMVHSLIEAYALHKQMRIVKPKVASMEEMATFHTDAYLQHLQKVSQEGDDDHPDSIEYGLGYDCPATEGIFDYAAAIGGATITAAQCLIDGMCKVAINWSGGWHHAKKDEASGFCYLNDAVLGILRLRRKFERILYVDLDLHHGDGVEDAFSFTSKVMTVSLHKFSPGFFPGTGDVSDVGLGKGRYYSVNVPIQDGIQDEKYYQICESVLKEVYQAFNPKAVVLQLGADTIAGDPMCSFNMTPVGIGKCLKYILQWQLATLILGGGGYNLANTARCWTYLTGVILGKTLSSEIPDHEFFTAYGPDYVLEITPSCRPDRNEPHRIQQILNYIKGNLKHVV
Description: Inhibition of human recombinant HDAC8 after 30 mins by fluorimetric assay

Histone deacetylase 3 = Histone deacetylase 3 (Homo sapiens, UniProt O15379)
Histone deacetylase 3, sequence (O15379 whole entry): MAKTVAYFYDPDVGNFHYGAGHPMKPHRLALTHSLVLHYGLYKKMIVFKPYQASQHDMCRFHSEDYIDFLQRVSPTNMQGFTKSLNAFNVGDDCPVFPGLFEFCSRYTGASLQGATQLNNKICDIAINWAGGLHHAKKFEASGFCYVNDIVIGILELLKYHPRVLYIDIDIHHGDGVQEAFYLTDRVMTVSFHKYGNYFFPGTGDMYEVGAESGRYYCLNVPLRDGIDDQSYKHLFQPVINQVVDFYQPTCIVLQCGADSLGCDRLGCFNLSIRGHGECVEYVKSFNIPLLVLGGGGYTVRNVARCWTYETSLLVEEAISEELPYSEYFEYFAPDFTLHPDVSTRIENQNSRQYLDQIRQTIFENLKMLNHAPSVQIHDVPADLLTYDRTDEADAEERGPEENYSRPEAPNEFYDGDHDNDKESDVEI
Description: Inhibition of human recombinant HDAC3 after 30 mins by fluorimetric assay

[2] = target: T2, Protein deacetylase HDAC6 (Homo sapiens, UniProt Q9UBN7)
T2 sequence (Q9UBN7 whole entry): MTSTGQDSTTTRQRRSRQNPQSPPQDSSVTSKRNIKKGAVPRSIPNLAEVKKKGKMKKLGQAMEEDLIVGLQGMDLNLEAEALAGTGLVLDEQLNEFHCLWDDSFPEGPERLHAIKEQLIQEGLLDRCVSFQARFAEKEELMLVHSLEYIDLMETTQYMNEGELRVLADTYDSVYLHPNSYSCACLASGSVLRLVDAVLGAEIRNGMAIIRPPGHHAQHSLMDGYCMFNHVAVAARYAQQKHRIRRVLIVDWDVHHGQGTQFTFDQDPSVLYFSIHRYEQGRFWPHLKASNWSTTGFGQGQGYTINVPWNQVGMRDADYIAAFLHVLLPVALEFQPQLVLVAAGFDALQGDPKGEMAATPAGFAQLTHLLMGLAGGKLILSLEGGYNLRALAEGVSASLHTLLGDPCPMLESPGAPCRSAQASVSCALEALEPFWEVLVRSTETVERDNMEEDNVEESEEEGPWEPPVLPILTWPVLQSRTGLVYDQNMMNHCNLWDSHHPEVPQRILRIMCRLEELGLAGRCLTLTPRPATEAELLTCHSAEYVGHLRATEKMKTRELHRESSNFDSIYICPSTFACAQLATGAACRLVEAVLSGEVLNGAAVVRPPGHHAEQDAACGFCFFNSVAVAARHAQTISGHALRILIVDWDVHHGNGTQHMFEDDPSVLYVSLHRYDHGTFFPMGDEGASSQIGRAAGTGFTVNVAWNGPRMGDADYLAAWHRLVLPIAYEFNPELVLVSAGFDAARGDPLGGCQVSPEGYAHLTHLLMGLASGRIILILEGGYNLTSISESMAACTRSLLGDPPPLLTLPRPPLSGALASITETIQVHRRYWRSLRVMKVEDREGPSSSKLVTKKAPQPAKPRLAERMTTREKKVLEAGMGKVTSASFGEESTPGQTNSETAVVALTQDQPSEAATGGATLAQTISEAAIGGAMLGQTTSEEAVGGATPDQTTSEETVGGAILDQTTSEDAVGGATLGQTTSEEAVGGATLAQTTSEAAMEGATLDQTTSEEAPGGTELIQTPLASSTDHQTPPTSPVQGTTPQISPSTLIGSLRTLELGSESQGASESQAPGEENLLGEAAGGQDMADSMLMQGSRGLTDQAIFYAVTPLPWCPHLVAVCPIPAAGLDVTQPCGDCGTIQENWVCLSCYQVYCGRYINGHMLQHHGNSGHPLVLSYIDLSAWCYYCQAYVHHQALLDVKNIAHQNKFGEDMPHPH
Description: Inhibition of human recombinant HDAC6 after 30 mins by fluorimetric assay

Jurkat = test: cells; details: Homo sapiens, 72 h
MCF7 = test: cells; details: Homo sapiens, MCF7, 72 h
HeLa = test: cells; details: Homo sapiens, 72 h
K562 = test: cells; details: Homo sapiens, K562, 72 h
cells = details: Homo sapiens, KYO1, 72 h
[3] = target: T3, Protein deacetylase HDAC6 (Homo sapiens) (UniProt Q9UBN7); test: Inhibition of HDAC6 in human Jurkat cells assessed as acetylated alpha-tubulin level at 0.2 to 20 uM after 24 hrs by Western blotting; type: cell-based
T3 sequence (whole entry): T2 sequence (Q9UBN7 whole entry)

[4] = target: Histone deacetylase (Homo sapiens) (UniProt Q13547+O15379+Q9UBN7+Q92769+Q9UQL6+Q8WUI4+Q9BY41+Q96DB2+P56524+Q9UKV0+Q969S8); test: Inhibition of class 1 HDAC in human Jurkat cells assessed as acetylated histone H3 level at 0.2 to 20 uM after 24 hrs by Western blotting; type: cell-based
Histone deacetylase [5] = type: cell-based, Homo sapiens; details: hela; remark: listed apart in the source
Description: Inhibition of HDAC in human HeLa cell nuclear extract after 30 mins by fluorimetric assay

Structure (SMILES) | IC50 (Histone deacetylase 1) [nM] | IC50 (Histone deacetylase 8) [nM] | IC50 (Histone deacetylase 3) [nM] | IC50 [2] [nM] | other results
O=C(O)CCCCC[C@@H]1NC(=O)[C@H]2CCCCN2C(=O)C[C@H](Cc2ccccc2)NC(=O)[C@H](Cc2c[nH]c3ccccc23)NC1=O |  |  |  |  | IC50 (Histone deacetylase [1]): 791 nM
CCC(=O)CCCCC[C@@H]1NC(=O)C[C@H](CC(C)C)NC(=O)[C@H](Cc2c[nH]c3ccccc23)NC(=O)[C@H](CCCCCC(=O)CC)NC1=O | 150 | 1400 | 260 | > 10000 | 
CCC(=O)CCCCC[C@@H]1NC(=O)[C@H](CCCCNC(C)=O)NC(=O)C[C@H](CC(C)C)NC(=O)[C@H](Cc2c[nH]c3ccccc23)NC1=O |  |  |  |  | GI50 (Jurkat): > 20000 nM; GI50 (MCF7): > 20000 nM; GI50 (HeLa): > 20000 nM
CCC(=O)CCCCC[C@@H]1NC(=O)[C@H](C)NC(=O)C[C@H](CC(C)C)NC(=O)[C@H](Cc2c[nH]c3ccccc23)NC1=O |  |  |  |  | GI50 (K562): 2000 nM; GI50 (MCF7): > 20000 nM
CCC(=O)CCSC[C@@H]1NC(=O)[C@H](C)NC(=O)C[C@H](CC(C)C)NC(=O)[C@H](Cc2c[nH]c3ccccc23)NC1=O (cyclo(AC(X1)W[β3hL])) | > 10000 | > 10000 | > 10000 | > 10000 | 
CC(C)C[C@H]1CC(=O)N[C@@H](C)C(=O)N[C@@H](CCCCCC(=O)O)C(=O)N[C@@H](Cc2ccccc2)C(=O)N1 (cyclo(A[Asu]F[β3hL])) |  |  |  |  | IC50 (Histone deacetylase [1]): 541 nM
CC(C)C[C@H]1CC(=O)N[C@@H](C)C(=O)N[C@@H](CSCCC(=O)O)C(=O)N[C@@H](Cc2c[nH]c3ccccc23)C(=O)N1 (cyclo(C(CH2CH2COOH)W[β3hL]A)) | 4840 | 6050 | 7080 | > 10000 | 
CC(=O)NCCCC[C@@H]1NC(=O)C[C@H](CC(C)C)NC(=O)[C@H](Cc2c[nH]c3ccccc23)NC(=O)[C@H](CSCCC(=O)O)NC1=O (cyclo(C(CH2CH2COOH)W[β3hL]K(Ac))) |  | 7040 | > 10000 | > 10000 | 
CC(C)C[C@H]1CC(=O)N[C@@H](C)C(=O)N[C@@H](CSCC(=O)O)C(=O)N[C@@H](Cc2c[nH]c3ccccc23)C(=O)N1 (cyclo(C(Carboxymethyl)W[β3hL]A)) | > 10000 | 9700 | > 10000 | > 10000 | 
CC(C)C[C@H]1CC(=O)N[C@@H](Cc2ccccc2)C(=O)N[C@@H](CCCCCC(=O)O)C(=O)N[C@@H](Cc2cccc3ccccc23)C(=O)N1 (cyclo([1Nal][β3hL]F[Asu])) | 68 | 530 | 690 | 5800 | IC50 (Histone deacetylase [1]): 742 nM; GI50 (Jurkat): > 20000 nM; GI50 (cells): > 20000 nM; Activity [3]: inactive; GI50 (K562): > 20000 nM; Activity [4]: Active; IC50 (Histone deacetylase [5]): 253 nM; GI50 (MCF7): > 20000 nM; GI50 (HeLa): > 20000 nM
CC(C)C[C@H]1CC(=O)NC(C)(C)C(=O)N[C@@H](CCCCCC(=O)O)C(=O)N[C@@H](Cc2cccc3ccccc23)C(=O)N1 (cyclo([1Nal][β3hL][Aib][Asu])) |  | 870 |  |  | 
CC(=O)NCCCCC[C@@H]1NC(=O)C[C@H](CC(C)C)NC(=O)[C@H](Cc2cccc3ccccc23)NC(=O)[C@H](CCCCCC(=O)O)NC1=O (cyclo([1Nal][β3hL][hLys](Ac)[Asu])) | 8 |  | 32 | > 10000 | GI50 (Jurkat): 300 nM; GI50 (cells): 43000 nM; GI50 (K562): 30000 nM; IC50 (Histone deacetylase [5]): 17 nM; GI50 (HeLa): 18000 nM
O=C(O)CCCCC[C@@H]1NC(=O)[C@H](Cc2ccccc2)NC(=O)C[C@H](Cc2c[nH]c3ccccc23)NC(=O)[C@H](Cc2cccc3ccccc23)NC1=O (cyclo([1Nal][β3hW]F[Asu])) | 460 |  | 1670 | 8000 | IC50 (Histone deacetylase [1]): 1009 nM; IC50 (Histone deacetylase [5]): 1040 nM
CC1(C)NC(=O)C[C@H](Cc2c[nH]c3ccccc23)NC(=O)[C@H](Cc2cccc3ccccc23)NC(=O)[C@H](CCCCCC(=O)O)NC1=O (cyclo([1Nal][β3hW][Aib][Asu])) |  |  |  | 3700 | 
CC(=O)NCCCC[C@@H]1NC(=O)C[C@H](Cc2ccc(O)cc2)NC(=O)[C@H](Cc2cccc3ccccc23)NC(=O)[C@H](CCCCCC(=O)O)NC1=O (cyclo([1Nal][β3hY]K(Ac)[Asu])) |  |  |  | 4400 | 
O=C(O)CCCCC[C@@H]1NC(=O)[C@H](Cc2c(F)c(F)c(F)c(F)c2F)NC(=O)C[C@H](Cc2ccc(O)cc2)NC(=O)[C@H](Cc2cccc3ccccc23)NC1=O (cyclo([1Nal][β3hY][Phe(F5)][Asu])) | 1000 | 6700 |  | > 10000 | 
N=C(N)NCCC[C@@H]1NC(=O)C[C@H](Cc2ccc(O)cc2)NC(=O)[C@H](CC(=O)O)NC(=O)[C@H](CCCCCC(=O)NO)NC1=O (cyclo([Asu](NHOH)D[β3hY]R)) |  |  |  |  | GI50 (Jurkat): > 20000 nM; Activity [3]: Active; Activity [4]: inactive; GI50 (MCF7): > 20000 nM; GI50 (HeLa): 9000 nM
CC(C)C[C@H]1CC(=O)N[C@@H](C)C(=O)N[C@@H](CCCCCC(=O)NO)C(=O)N[C@@H](Cc2c[nH]c3ccccc23)C(=O)N1 (cyclo([Asu](NHOH)W[β3hL]A)) |  |  |  |  | GI50 (Jurkat): 1700 nM
CC(C)C[C@H]1CC(=O)N[C@@H](Cc2ccccc2)C(=O)N[C@@H](CCCCCC(=O)NO)C(=O)N[C@@H](Cc2c[nH]c3ccccc23)C(=O)N1 (cyclo([Asu](NHOH)W[β3hL]F)) |  |  | 31 | 70 | GI50 (Jurkat): 1300 nM; GI50 (cells): 1900 nM; GI50 (K562): 1900 nM
CC(C)C[C@H]1CC(=O)N[C@@H](C)C(=O)N[C@@H](CCCCCC(=O)O)C(=O)N[C@@H](Cc2cccc3ccccc23)C(=O)N1 (cyclo([Asu][1Nal][β3hL]A)) | 200 |  | 990 |  | IC50 (Histone deacetylase [1]): 377 nM; IC50 (Histone deacetylase [5]): 205 nM
CC(C)C[C@H]1CC(=O)N[C@@H](CCCNC(=N)N)C(=O)N[C@@H](CCCCCC(=O)O)C(=O)N[C@@H](Cc2cccc3ccccc23)C(=O)N1 (cyclo([Asu][1Nal][β3hL]R)) | 178 | 607 | 262 | 1400 | 
N=C(N)NCCC[C@@H]1NC(=O)C[C@H](Cc2ccc(O)cc2)NC(=O)[C@H](Cc2cccc3ccccc23)NC(=O)[C@H](CCCCCC(=O)O)NC1=O (cyclo([Asu][1Nal][β3hY]R)) |  | 1400 |  |  | 
CC[C@]1(O)C[C@@H]2CN(CCc3c([nH]c4ccccc34)[C@@](C(=O)OC)(c3cc4c(cc3OC)N(C)[C@H]3[C@@](O)(C(=O)OC)[C@H](OC(C)=O)[C@]5(CC)C=CCN6CC[C@]43[C@@H]65)C2)C1 [VINBLASTINE] |  |  |  |  | GI50 (cells): < 100 nM; GI50 (MCF7): 10000 nM
